The results in this text go back to ChEMBL document CHEMBL4118148, “Design, synthesis and cardiovascular evaluation of some aminoisopropanoloxy derivatives of xanthone” (Bioorg Med Chem, 2018).

Molecules are shown by their SMILES. Active and inactive are the calls of the source. The calls are words filed in the database; no cut-off is given here.

Series [1] deals with Rattus norvegicus. Description: Antiarrhythmic activity in Wistar rat assessed as inhibition of adrenaline-induced premature ventricular extrasystoles administered iv 15 mins prior to adrenaline challenge. In kind it is functional.
The test system of series [2] is Rattus norvegicus. Description: Cardiotoxicity in Wistar rat assessed as effect on heart rate at 5 mg/kg, iv measured after 1 min (reference value: 323 to 374.5 bpm). The note with it: in vivo. Type of series: toxicity, organism-based.
For series [3], the system named is Rattus norvegicus. Kind of series: Hypotensive activity in normotensive Wistar rat assessed as diastolic blood pressure at 5 mg/kg, iv measured after 5 mins (reference value: 86.5 to 119.4 mmHg). In kind it is functional.
Series [4] addresses Beta-2 adrenergic receptor (Cavia porcellus, UniProt Q8K4Z4). Kind of series: Antagonist activity at adrenergic beta2 receptor in isolated guinea pig trachea assessed as inhibition of isoprenaline-induced bronchodilation incubated for 20 mins. To be noted: read-out: pA2 (converted). Type of series: functional.
For series [5], the system named is Rattus norvegicus. Kind of series: Hypotensive activity in normotensive Wistar rat assessed as systolic blood pressure at 5 mg/kg, iv measured after 5 mins (reference value: 119.2 to 148.6 mmHg). Type of series: functional.
Series [6] deals with Rattus norvegicus. Kind of series: Cardiotoxicity in Wistar rat assessed as effect on QT interval time at 5 mg/kg, iv measured after 5 mins (reference value: 57.7 to 61 ms). In kind it is toxicity, organism-based. The note with it: in vivo.
For series [7], the system named is Rattus norvegicus. Description: Cardiotoxicity in Wistar rat assessed as effect on QRS interval time at 5 mg/kg, iv measured after 1 min (reference value: 16.7 to 20.7 ms). The note with it: in vivo. Type of series: toxicity, organism-based.
For series [8], the system named is Rattus norvegicus. Kind of series: Hypotensive activity in normotensive Wistar rat assessed as diastolic blood pressure at 5 mg/kg, iv measured after 10 mins (reference value: 86.5 to 119.4 mmHg). Type of series: functional.
In series [9] the test system is Rattus norvegicus. Description: Cardiotoxicity in Wistar rat assessed as effect on QRS interval time at 5 mg/kg, iv measured after 15 mins (reference value: 16.7 to 20.7 ms). Type of series: toxicity, organism-based. To be noted: in vivo, 0.25 h.
For series [10], the system named is Rattus norvegicus. Kind of series: Cardiotoxicity in Wistar rat assessed as effect on PQ interval time at 5 mg/kg, iv measured after 15 mins (reference value: 52 to 57 ms). Type of series: toxicity, organism-based. The note with it: in vivo, 0.25 h.
The subject of series [11] is Rattus norvegicus. Description: Hypotensive activity in normotensive Wistar rat assessed as reduction in systolic blood pressure administered iv measured after 60 mins. In kind it is functional.
For series [12], the target named is Adrenergic receptor alpha-2 (Rattus norvegicus) (UniProt P22086+P19328+P22909). Description: Displacement of [3H]-clonidine from adrenergic alpha2 receptor in Wistar rat cortex at 10^-5 M incubated for 25 mins by microbeta liquid scintillation counting analysis.
In series [13] the target is Adrenergic receptor alpha-1 (Rattus norvegicus) (UniProt P15823+P23944+P43140). Description: Displacement of [3H][…]prazosin from adrenergic alpha1 receptor in Wistar rat cortex at 10^-5 M incubated for 30 mins by microbeta liquid scintillation counting analysis. On the technique in general: In a radioligand displacement assay an active substance lowers the binding of a labelled ligand.

Series [14] relates to Rattus norvegicus. Kind of series: Hypotensive activity in normotensive Wistar rat assessed as diastolic blood pressure at 5 mg/kg, iv measured after 30 mins (reference value: 86.5 to 119.4 mmHg). In kind it is functional.
In series [15] the test system is Rattus norvegicus. Description: Hypotensive activity in normotensive Wistar rat assessed as systolic blood pressure at 5 mg/kg, iv measured after 10 mins (reference value: 119.2 to 148.6 mmHg). Type of series: functional.
Series [16] relates to Rattus norvegicus. Description: Cardiotoxicity in Wistar rat assessed as effect on PQ interval time at 5 mg/kg, iv measured after 5 mins (reference value: 52 to 57 ms). In kind it is toxicity, organism-based. The note with it: in vivo.
Series [17] has as its system Rattus norvegicus. Kind of series: Hypotensive activity in normotensive Wistar rat assessed as systolic blood pressure at 5 mg/kg, iv measured after 30 mins (reference value: 119.2 to 148.6 mmHg). Type of series: functional.
The test system of series [18] is Rattus norvegicus. Description: Cardiotoxicity in Wistar rat assessed as effect on QT interval time at 5 mg/kg, iv measured after 1 min (reference value: 57.7 to 61 ms). In kind it is toxicity, organism-based. To be noted: in vivo.
The test system of series [19] is Rattus norvegicus. Description: In vivo inhibition of beta adrenoceptor in Wistar rat assessed as reduction in isoprenaline-induced tachycardia at 5 mg/kg, iv administered as single dose 10 mins prior to isoprenaline injection. In kind it is functional, organism-based.
Series [20] has as its system Rattus norvegicus. Kind of series: Hypotensive activity in normotensive Wistar rat assessed as systolic blood pressure at 5 mg/kg, iv measured after 60 mins (reference value: 119.2 to 148.6 mmHg). Type of series: functional.
For series [21], the system named is Rattus norvegicus. Kind of series: Cardiotoxicity in Wistar rat assessed as effect on QRS interval time at 5 mg/kg, iv measured after 5 mins (reference value: 16.7 to 20.7 ms). The note with it: in vivo. Type of series: toxicity, organism-based.
Series [22] has as its system Rattus norvegicus. Kind of series: Hypotensive activity in normotensive Wistar rat assessed as systolic blood pressure at 5 mg/kg, iv measured after 20 mins (reference value: 119.2 to 148.6 mmHg). In kind it is functional.
Series [23] deals with Rattus norvegicus. Kind of series: Cardiotoxicity in Wistar rat assessed as effect on heart rate at 5 mg/kg, iv measured after 5 mins (reference value: 323 to 374.5 bpm). To be noted: in vivo. In kind it is toxicity, organism-based.
Series [24] has as its system Blood. Kind of series: Anti-aggregative activity in Wistar rat whole blood assessed as inhibition of collagen-induced aggregation preincubated for 3 mins followed by collagen induction measured for 6 mins. In kind it is functional, tissue-based.
In series [25] the test system is Rattus norvegicus. Description: Cardiotoxicity in Wistar rat assessed as effect on QTC interval time at 5 mg/kg, iv measured after 5 mins (reference value: 136.7 to 146.2 ms). Type of series: toxicity, organism-based. To be noted: in vivo.
Series [26] deals with Rattus norvegicus. Kind of series: Cardiotoxicity in Wistar rat assessed as effect on QT interval time at 5 mg/kg, iv measured after 15 mins (reference value: 57.7 to 61 ms). In kind it is toxicity, organism-based. To be noted: in vivo, 0.25 h.
Series [27] concerns Rattus norvegicus. Kind of series: Cardiotoxicity in Wistar rat assessed as effect on PQ interval time at 5 mg/kg, iv measured after 1 min (reference value: 52 to 57 ms). The note with it: in vivo. Type of series: toxicity, organism-based.
The subject of series [28] is Rattus norvegicus. Kind of series: Cardiotoxicity in Wistar rat assessed as effect on heart rate at 5 mg/kg, iv measured after 15 mins (reference value: 323 to 374.5 bpm). Type of series: toxicity, organism-based. To be noted: in vivo, 0.25 h.
Series [29] deals with Rattus norvegicus. Kind of series: Hypotensive activity in normotensive Wistar rat assessed as diastolic blood pressure at 5 mg/kg, iv measured after 20 mins (reference value: 86.5 to 119.4 mmHg). In kind it is functional.
The target in series [30] is Beta-1 adrenergic receptor (Rattus norvegicus, UniProt P18090). Kind of series: Displacement of [3H]-CGP-12177 from adrenergic beta1 receptor in Wistar rat cortex incubated for 60 mins by microbeta liquid scintillation counting analysis.
For series [31], the system named is Rattus norvegicus. Kind of series: Hypotensive activity in normotensive Wistar rat assessed as diastolic blood pressure at 5 mg/kg, iv measured after 60 mins (reference value: 86.5 to 119.4 mmHg). Type of series: functional.
Series [32] has as its system Rattus norvegicus. Kind of series: Cardiotoxicity in Wistar rat assessed as effect on QTC interval time at 5 mg/kg, iv measured after 1 min (reference value: 136.7 to 146.2 ms). Type of series: toxicity, organism-based. To be noted: in vivo.
The subject of series [33] is Rattus norvegicus. Description: Cardiotoxicity in Wistar rat assessed as effect on QTC interval time at 5 mg/kg, iv measured after 15 mins (reference value: 136.7 to 146.2 ms). In kind it is toxicity, organism-based. To be noted: in vivo, 0.25 h.
A short description of series [34]: (§1) Inhibition of voltage gated calcium channel in Wistar rat aorta assessed as relaxation of KCl-precontracted aortic rings by measuring reduction in calcium entry in presence of phentolamine.
For series [35], the species on record is Rattus norvegicus. The series is described as §1.
The test system of series [36] is Blood. Kind of series: Anti-aggregative activity in Wistar rat whole blood assessed as inhibition of collagen/adrenaline-induced aggregation up to 100 uM preincubated for 3 mins followed by collagen induction measured for 6 mins. In kind it is functional, tissue-based.
The subject of series [37] is Rattus norvegicus. Description: In vivo inhibition of beta adrenoceptor in Wistar rat assessed as reduction in isoprenaline-induced tachycardia at 1 mg/kg, iv administered as single dose 10 mins prior to isoprenaline injection. In kind it is functional, organism-based.
Series [38] relates to Blood. Kind of series: Anti-aggregative activity in Wistar rat whole blood assessed as inhibition of collagen-induced aggregation up to 100 uM preincubated for 3 mins followed by collagen induction measured for 6 mins. In kind it is functional, tissue-based.

Beta-2 adrenergic receptor, sequence (Q8K4Z4 whole entry): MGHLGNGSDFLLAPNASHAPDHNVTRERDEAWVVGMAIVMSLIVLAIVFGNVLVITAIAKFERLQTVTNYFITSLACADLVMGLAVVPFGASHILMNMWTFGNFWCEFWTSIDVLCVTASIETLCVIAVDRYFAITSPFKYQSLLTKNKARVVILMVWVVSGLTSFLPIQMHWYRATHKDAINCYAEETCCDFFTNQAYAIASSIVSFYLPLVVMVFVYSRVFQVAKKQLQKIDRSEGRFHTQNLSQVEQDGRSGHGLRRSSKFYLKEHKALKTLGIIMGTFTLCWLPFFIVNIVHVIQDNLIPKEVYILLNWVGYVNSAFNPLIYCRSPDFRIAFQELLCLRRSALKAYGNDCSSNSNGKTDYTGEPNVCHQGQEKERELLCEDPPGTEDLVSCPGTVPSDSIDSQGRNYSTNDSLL
Beta-1 adrenergic receptor, sequence (P18090 whole entry): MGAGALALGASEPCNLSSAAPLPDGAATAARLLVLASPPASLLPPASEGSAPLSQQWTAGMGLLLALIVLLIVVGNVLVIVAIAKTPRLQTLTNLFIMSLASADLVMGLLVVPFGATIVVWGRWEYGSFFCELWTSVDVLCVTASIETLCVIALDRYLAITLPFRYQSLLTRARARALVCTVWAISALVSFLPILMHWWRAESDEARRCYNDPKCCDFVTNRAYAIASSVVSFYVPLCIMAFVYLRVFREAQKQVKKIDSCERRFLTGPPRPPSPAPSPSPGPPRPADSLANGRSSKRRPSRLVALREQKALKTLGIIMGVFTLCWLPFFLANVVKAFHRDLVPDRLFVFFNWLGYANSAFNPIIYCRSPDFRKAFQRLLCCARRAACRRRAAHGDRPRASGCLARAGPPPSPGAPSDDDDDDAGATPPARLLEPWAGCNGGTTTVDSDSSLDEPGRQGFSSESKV

For the compound `CC(C)NCC(O)COc1cccc2ccccc12` (stereo unspecified) [PROPRANOLOL], the median effective dose (ED50) – broadly, the dose that gives a 50% effect, or the effect in half of the subjects – in the series on Rattus norvegicus [1] worked out at 0.36 mg/kg.
On to `Cc1cccc2c(=O)c3ccc(OCC(O)CNC(C)(C)C)cc3oc12.Cl` (racemic), for which the Activity stood at 337 bpm with Rattus norvegicus [2]; 129.2 mmHg in the series on Rattus norvegicus [3]; 166.6 mmHg with Rattus norvegicus [5]; 125 mmHg with Rattus norvegicus [8]; 123.8 mmHg in the series with Rattus norvegicus [14]; 159.2 mmHg in the series on Rattus norvegicus [15]. Moreover, the Activity worked out at 155.8 mmHg in the series on Rattus norvegicus [17]; 144 mmHg with Rattus norvegicus [20]; 160 mmHg in the series on Rattus norvegicus [22]; 310 bpm with Rattus norvegicus [23]; 339.2 bpm in the series with Rattus norvegicus [28]; 126 mmHg in the series with Rattus norvegicus [29]. In the series on Rattus norvegicus [31], the Activity came out at 114 mmHg. Moreover, the Kb in series [4] is 655 nM. Moreover, the Time in the series with Rattus norvegicus [6] came to 59.5 ms; in the series with Rattus norvegicus [7], 18 ms; in the series on Rattus norvegicus [9] it was 18.5 ms; in the series on Rattus norvegicus [10], 55.5 ms; in the series on Rattus norvegicus [16], 59.5 ms; with Rattus norvegicus [18], 59 ms. Besides, the Time with Rattus norvegicus [21] was found to be 18.2 ms; in the series on Rattus norvegicus [25], 135.2 ms; in the series with Rattus norvegicus [26], 58.5 ms; with Rattus norvegicus [27] it was 60.5 ms; in the series with Rattus norvegicus [32] it was 139.8 ms; in the series on Rattus norvegicus [33] it was 138.9 ms. The result (with Rattus norvegicus [11]; in [12]; in series [13]) was inactive. For the same compound, the inhibition (usually the share of the control response that was lost under treatment) with Rattus norvegicus [19] is “Active”. Also, the IC50 (as a rule, the midpoint of a concentration-inhibition curve) with Blood [24] was 62700 nM; in series [30], 785 nM. Also, the inhibition result in the series with Blood [24] is “Dose-dependent effect”.
For the compound `COc1ccc(CCN(C)CCCC(C#N)(c2ccc(OC)c(OC)c2)C(C)C)cc1OC` (stereo unspecified) [VERAPAMIL], in series [34], the 50% inhibitory concentration (IC50) was found to be 32.9 nM. Besides, the inhibition entry was “Dose-dependent effect” in the series filed under Rattus norvegicus [35] and 95% in the series filed under Rattus norvegicus [35] (concentration not given here).
For `COc1ccccc1OCCNCC(O)COc1cccc2[nH]c3ccccc3c12` (stereo unspecified) [CARVEDILOL], the inhibition result in the series on Blood [36] and in the series with Blood [38] was “inactive” in each case. Moreover, in the series on Rattus norvegicus [1], the ED50 came to 1.05 mg/kg. The inhibition entry with Rattus norvegicus [37] was “Active”.
